{"source": "paper PMC9865752", "about": "“Design and Synthesis of (Z)-2-(Benzylamino)-5-benzylidenethiazol-4(5H)-one Derivatives as Tyrosinase Inhibitors and Their Anti-Melanogenic and Antioxidant Effects” (Molecules, 2023)", "key": {"mushroom tyrosinase": {"molecular_target": "T1, mushroom tyrosinase (Agaricus bisporus, UniProt C7FF04)", "T1 construct": "purchased", "T1 sequence (C7FF04 1-392)": "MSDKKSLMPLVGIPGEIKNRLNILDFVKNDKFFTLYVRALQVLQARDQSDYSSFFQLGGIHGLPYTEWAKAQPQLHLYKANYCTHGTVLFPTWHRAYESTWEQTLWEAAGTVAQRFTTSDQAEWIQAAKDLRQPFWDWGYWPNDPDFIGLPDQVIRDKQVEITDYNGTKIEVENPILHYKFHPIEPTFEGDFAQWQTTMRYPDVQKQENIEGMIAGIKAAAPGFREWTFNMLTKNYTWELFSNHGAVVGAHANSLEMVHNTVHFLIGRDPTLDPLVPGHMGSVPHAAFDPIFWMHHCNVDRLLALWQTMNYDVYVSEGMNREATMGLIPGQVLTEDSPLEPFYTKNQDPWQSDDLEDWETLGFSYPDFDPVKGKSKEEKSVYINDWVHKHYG", "experiment": "Kinetic studies of mushroom tyrosinase inhibition (Lineweaver–Burk and Dixon plots)", "assay_type": "biochemical", "conditions": "substrate L-dopa", "procedure": "Kinetic studies using Lineweaver–Burk plots were performed using four different concentrations (0, 0.5, 1, and 2 µM) of the test derivatives (7 and 8) and five different concentrations (0.5, 1, 2, 4, and 8 mM for 7, and 1, 2, 4, 8, and 16 mM for 8) of L-dopa.\nLineweaver–Burk plots for 7 and 8 were transformed into the corresponding Dixon plots to determine their inhibition constant (Ki) values for the mushroom tyrosinase–inhibitor complex. […] The Ki values for the mushroom tyrosinase–inhibitor complex were obtained from the x-axis value of each convergence point.\nLineweaver–Burk plots of derivatives 7 and 8 were obtained in the presence of L-dopa as the substrate. Briefly, 20 µL aliquots of mushroom tyrosinase aqueous solution (200 units/mL) were added to each well of a 96-well plate containing 10 µL BABT derivative (7 or 8) DMSO solution (final concentrations: 0, 0.5, 1, and 2 µM) and 170 µL of an aqueous solution containing L-dopa (final concentrations: 1.0, 2.0, 4.0, 8.0, and 16.0 mM) and sodium phosphate buffer (pH 6.5, 17.2 mM). The initial rate of dopachrome formation was determined by examining the changes in absorbance at a wavelength of 475 nm (ΔOD475/min) using a microplate reader (VersaMax; Molecular Devices)."}, "[1]": {"experiment": "DPPH radical scavenging assay", "conditions": "test samples 500 µM; DPPH 0.18 mM; 30 min in the dark", "procedure": "DPPH is a light-sensitive compound containing free radicals. The DPPH assay is one of the most common methods for evaluating the antioxidant activity of a compound. The effects of BABT derivatives on DPPH radical scavenging activities were evaluated using L-ascorbic acid as a positive reference control. DPPH radical scavenging activities were measured after leaving the mixed samples (test samples of 500 µM plus DPPH solution of 0.18 mM) in the dark for 30 min. To determine the radical scavenging activities, the absorbance of the mixed samples was measured at 517 nm.\nAccording to previously described methods, with minor modifications, the DPPH radical scavenging activities of BABT derivatives 1–14 were measured. A DPPH (0.2 mM) and methanol solution (180 µL) was mixed with 20 µL of a DMSO solution containing 5 mM BABT derivative, or with 20 µL of an aqueous solution of 5 mM L-ascorbic acid, in each well of a 96-well plate and kept at ambient temperature in the dark for 30 min. The optical density of each well was measured at 517 nm using a microplate reader (VersaMax; Molecular Devices). L-Ascorbic acid was used as a positive reference control, and the DPPH radical scavenging abilities of BABT derivatives were compared with those of L-ascorbic acid. All experiments were performed independently, thrice."}, "[2]": {"experiment": "SIN-1-induced ROS scavenging assay", "conditions": "20 µM; SIN-1 as ROS generator; DCFH-DA probe", "from_the_text": "The scavenging activities of the BABT derivatives 1–14 against ROS and peroxynitrite (ONOO^−) were investigated because the antioxidant activities of the compounds may modulate melanogenesis. To measure the ROS scavenging activities of BABT derivatives, 2′,7′-dichlorodihydrofluorescein diacetate (DCFH-DA) and 3-morpholinosydnonimine (SIN-1) were used as a fluorogenic probe and ROS generator, respectively. The reaction of DCFH-DA with esterase produces 2′,7′-dichlorodihydrofluorescein (DCFH), which generates the fluorescent compound 2′,7′-dichlorofluorescein (DCF) by reacting with ROS produced by SIN-1. Therefore, ROS scavenging activities were determined by measuring the DCF fluorescence remaining after the BABT derivatives scavenged the ROS generated by SIN-1. […] BABT derivatives and Trolox, the positive control, were used at a concentration of 20 µM.\nThe ROS scavenging activities of the BABT derivatives were measured using an oxidant-sensitive fluorescent probe. Derivatives or Trolox (10 µL; final concentration: 20 µM) were seeded in a black 96-well plate. Then, 10 µL of SIN-1 (10 µM) was added to induce radical species generation and mixed with 180 µL of sodium phosphate buffer (pH 7.4) containing 12.5 µM DCF-DA and 600 units of esterase. Fluorescence intensity was measured at emission and excitation wavelengths of 535 and 485 nm, respectively, using a fluorescence microplate reader (Berthold Technologies GmbH & Co., Wien, Austria). Trolox was used as the positive control."}, "[3]": {"test_system": "microphthalmia-associated transcription factor (MITF)", "experiment": "Western blotting of MITF protein expression", "assay_type": "cell-based, murine", "procedure": "We investigated whether, in addition to the direct inhibition of tyrosinase, another inhibitory mechanism of melanogenesis by derivative 8 may be related to the expression of proteins involved in melanogenesis. For the Western blotting experiment, B16F10 cells were treated with α-MSH (1 µM) plus IBMX (200 µM), leading to a 1.7- and 4.9-fold increase in expression levels of melanogenesis-associated proteins tyrosinase and MITF, compared to those in the untreated control (100%) (Figure 13).\nB16F10 cells were seeded in a 60 mm dish at a density of 5 × 10^5 cells/mL for 24 h, washed with cold PBS, and harvested. Cytosolic and nuclear fractions of cell lysates were extracted using lysis buffer, as described previously. Protein concentrations in the cell lysates were estimated using the BCA protein assay (Pierce, Rockford, IL, USA). […] The membranes were washed and protein bands detected using the SuperSignal West Pico Chemiluminescence assay kit (Advansta, San Jose, CA, USA) and the Davinch–Chem program (Davinch-K, Seoul, Republic of Korea). Immunoblotting data were quantified using CS Analyzer 3.2 (Densitograph) image analysis software (http://www.attokorea.co.kr, accessed on 21 November 2022)."}}, "data": [{"smiles": "O=C1N=C(NCc2ccccc2)S/C1=C\\c1ccc(O)cc1O", "note": "[Compound 8, (Z)-2-(benzylamino)-5-(2,4-dihydroxybenzylidene)thiazol-4(5H)-one]", "values": [{"measurement": "Ki", "setting": "mushroom tyrosinase; Dixon plots, read-out: inhibition constant (Ki) for the mushroom tyrosinase–inhibitor complex", "value": 810, "unit": "nM"}, {"measurement": "mode of inhibition", "setting": "mushroom tyrosinase; Lineweaver–Burk plots", "value": "competitive inhibitors"}, {"measurement": "DPPH radical scavenging activity, % inhibition", "setting": "[1]", "value": 76, "unit": "%"}, {"measurement": "ROS scavenging activity (in words)", "setting": "[2]", "value": "did not show significant ROS scavenging effect"}, {"measurement": "relative expression level of MITF protein", "setting": "[3]; 10 µM, α-MSH plus IBMX treated B16F10 cells", "value": "lowered the protein expression to the same or lower control levels"}, {"measurement": "relative expression level of MITF protein", "setting": "[3]; 5, 10 and 20 µM, α-MSH (1 µM) plus IBMX (200 µM) treated B16F10 cells", "value": "significantly reduced the relative expression levels of tyrosinase and MITF in a dose-dependent manner"}]}]}
